Source: ChEMBL document CHEMBL4373746, “Structural attributes influencing unbound tissue distribution” (Eur J Med Chem, 2020)

Experiments:
[1] = Fraction unbound in Wistar Han rat plasma at 2 uM incubated for 6 hrs by equilibrium dialysis method
[2] = Fraction unbound in Wistar Han rat white adipose tissue at 2 uM incubated for 6 hrs by equilibrium dialysis method
[3] = Fraction unbound in Wistar Han rat brain at 2 uM incubated for 6 hrs by equilibrium dialysis method
[4] = Fraction unbound in Wistar Han rat heart at 2 uM incubated for 6 hrs by equilibrium dialysis method
[5] = Fraction unbound in Wistar Han rat liver at 2 uM incubated for 6 hrs by equilibrium dialysis method
[6] = Fraction unbound in Wistar Han rat skeletal muscle at 2 uM incubated for 6 hrs by equilibrium dialysis method
[7] = Total plasma concentration in Wistar Han rat at 1 to 2 mg/kg, iv infused for 10 to 20 hrs by LC-MS/MS analysis; conditions: in vivo
[8] = Drug concentration in total white adipose tissue in Wistar Han rat at 1 to 2 mg/kg, iv infused for 10 to 20 hrs by LC-MS/MS analysis; conditions: in vivo
[9] = Drug concentration in total brain in Wistar Han rat at 1 to 2 mg/kg, iv infused for 10 to 20 hrs by LC-MS/MS analysis; conditions: in vivo
[10] = Drug concentration in total heart in Wistar Han rat at 1 to 2 mg/kg, iv infused for 10 to 20 hrs by LC-MS/MS analysis; conditions: in vivo
[11] = Drug concentration in total liver in Wistar Han rat at 1 to 2 mg/kg, iv infused for 10 to 20 hrs by LC-MS/MS analysis; conditions: in vivo
[12] = Drug concentration in total skeletal muscle in Wistar Han rat at 1 to 2 mg/kg, iv infused for 10 to 20 hrs by LC-MS/MS analysis; conditions: in vivo
[13] = Unbound tissue partition coefficient, ratio of drug level in heart to plasma in Wistar Han rat at 1 to 2 mg/kg, iv infused for 10 to 20 hrs by LC-MS/MS analysis
[14] = Unbound tissue partition coefficient, ratio of drug level in brain to plasma in Wistar Han rat at 1 to 2 mg/kg, iv infused for 10 to 20 hrs by LC-MS/MS analysis
[15] = Unbound tissue partition coefficient, ratio of drug level in adipose to plasma in Wistar Han rat at 1 to 2 mg/kg, iv infused for 10 to 20 hrs by LC-MS/MS analysis
[16] = Unbound tissue partition coefficient, ratio of drug level in liver to plasma in Wistar Han rat at 1 to 2 mg/kg, iv infused for 10 to 20 hrs by LC-MS/MS analysis
[17] = Unbound tissue partition coefficient, ratio of drug level in skeletal muscle to plasma in Wistar Han rat at 1 to 2 mg/kg, iv infused for 10 to 20 hrs by LC-MS/MS analysis
[18] = Unbound tissue partition coefficient, ratio of drug level in brain to plasma in mouse administered as single dose; format: ADME; conditions: read-out: K(p,uu,brain)
[19] = Apparent permeability of the compound across dog RRCK cells by MDCK-LE assay

Compound	fraction unbound at 6 h, 2 µM [1]	fraction unbound at 6 h, 2 µM [2]	fraction unbound at 6 h, 2 µM [3]	fraction unbound at 6 h, 2 µM [4]	fraction unbound at 6 h, 2 µM [5]	fraction unbound at 6 h, 2 µM [6]	Cp [7]	Ct [8]	Ct [9]	Ct [10]	Ct [11]	Ct [12]	Kp uu ([13]; heart/plasma)	Kp uu ([14]; brain/plasma)	Kp uu ([15]; adipose/plasma)	Kp uu ([16]; liver/plasma)	Kp uu ([17]; skeletal muscle/plasma)	Kp uu [18]	Papp [19]	further results
CN1CC[C@H](c2c(O)cc(O)c3c(=O)cc(-c4ccccc4Cl)oc23)[C@H](O)C1 [ALVOCIDIB]	0.147	1	0.0442	0.0624	0.021	0.033	14 ng/mL	5.6 ng/mL	2.9 ng/mL	56 ng/mL	32 ng/mL	52 ng/mL	1.7	0.06	2.7	0.33	0.86	0.065	22 ×10⁻⁶ cm/s	
CN(C)C(=O)C(CCN1CCC(O)(c2ccc(Cl)cc2)CC1)(c1ccccc1)c1ccccc1 [LOPERAMIDE]	0.0462	0.00264	0.00591	0.00677	0.000644	0.0022	74 ng/mL	130 ng/mL	1.3 ng/mL	390 ng/mL	590 ng/mL	170 ng/mL	0.79	0.002	0.1	0.11	0.11	0.059	2.7 ×10⁻⁶ cm/s	
CC(C)c1nc(CN(C)C(=O)N[C@H](C(=O)N[C@@H](Cc2ccccc2)C[C@H](O)[C@H](Cc2ccccc2)NC(=O)OCc2cncs2)C(C)C)cs1 [RITONAVIR]																		0.019	9.9 ×10⁻⁶ cm/s	Cp ([7]; Wistar Han): 27 ng/mL; Ct ([8]; Wistar Han): 31 ng/mL; Ct ([9]; Wistar Han): 0.38 ng/mL; Ct ([10]; Wistar Han): 170 ng/mL; Ct ([11]; Wistar Han): 370 ng/mL; Ct ([12]; Wistar Han): 42 ng/mL; Kp uu ([13]; other tissue): 9.6; Kp uu ([14]; brain): 0.0018; Kp uu ([15]; other tissue): 9.6; Kp uu ([16]; other tissue): 1.2; Kp uu ([17]; other tissue): 0.56
